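Step 1: Grow cells in 96-well plates. Step 2: Expose to compound for 48 hours at 5 concentrations. Step 3: Interpolate endpoints linearly; if unreached, use highest concentration. At the GI50, growth is halved.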 Activity calls are given as the source filed them. No stated cut-off is given here; in the data, active = GI50 up to about 1.1 µM and inactive = higher.
Columns and labels:
Assay in all cases: NCI-60 cell line screen, 48 h
MCF7 = tested on: MCF7
SK-MEL-28 = tested on: SK-MEL-28
HCT-15 = tested on: HCT-15
NCI-H460 = tested on: NCI-H460
HOP-92 = tested on: HOP-92
A498 = tested on: A498
UACC-257 = tested on: UACC-257
SN12C = tested on: SN12C
UO-31 = tested on: UO-31
NCI/ADR-RES = tested on: NCI/ADR-RES
RXF 393 = tested on: RXF 393
SW-620 = tested on: SW-620
NCI-H522 = tested on: NCI-H522
A549 = tested on: A549
SNB-75 = tested on: SNB-75
OVCAR-3 = tested on: OVCAR-3
OVCAR-4 = tested on: OVCAR-4
HCT-116 = tested on: HCT-116
CAKI-1 = tested on: CAKI-1

Row | Compound | GI50 (MCF7) | GI50 (SK-MEL-28) | GI50 (HCT-15) [µM] | GI50 (NCI-H460) | GI50 (HOP-92) | GI50 (A498) | GI50 (UACC-257) | GI50 (SN12C) | GI50 (UO-31) | GI50 (NCI/ADR-RES) | GI50 (RXF 393) | GI50 (SW-620) | GI50 (NCI-H522) | GI50 (A549) | GI50 (SNB-75) | GI50 (OVCAR-3) | GI50 (OVCAR-4) | GI50 (HCT-116) | GI50 (CAKI-1)
1 | [N-]=[N+]=Nc1cccc(-c2nnc(Cl)cc2O)c1 | > 100 µM (inactive) | > 100 µM (inactive) | > 100 | > 100 µM (inactive) | > 100 µM (inactive) | > 100 µM (inactive) | > 100 µM (inactive) | > 100 µM (inactive) | > 10 µM (inactive) | > 100 µM (inactive) | > 100 µM (inactive) | > 100 µM (inactive) | > 100 µM (inactive) | > 100 µM (inactive) | 89.7 µM (inactive) | > 100 µM (inactive) | > 100 µM (inactive) | > 100 µM (inactive) | –
2 | CCOP(=O)(OCC)/C(=C\N1C(=O)CC(=O)NC1=S)C(=O)OC | > 100 µM (inactive) | > 100 µM (inactive) | > 100 | > 100 µM (inactive) | > 100 µM (inactive) | > 100 µM (inactive) | > 100 µM (inactive) | > 100 µM (inactive) | > 100 µM (inactive) | > 100 µM (inactive) | > 100 µM (inactive) | > 100 µM (inactive) | – | > 100 µM (inactive) | > 100 µM (inactive) | > 100 µM (inactive) | > 100 µM (inactive) | > 100 µM (inactive) | > 100 µM (inactive)
3 | Cc1nc(N)c(N2CCN([N+](=O)[O-])CC2)c(O)n1 | > 100 µM (inactive) | > 100 µM (inactive) | > 100 | > 100 µM (inactive) | – | > 100 µM (inactive) | > 100 µM (inactive) | > 100 µM (inactive) | > 100 µM (inactive) | > 100 µM (inactive) | – | > 100 µM (inactive) | > 100 µM (inactive) | > 100 µM (inactive) | > 100 µM (inactive) | > 100 µM (inactive) | > 100 µM (inactive) | > 100 µM (inactive) | –
4 | CC(=O)NC(NCCN)(c1ccccc1)c1ccccc1 | > 100 µM (inactive) | > 100 µM (inactive) | > 100 | > 100 µM (inactive) | 16.9 µM (inactive) | 59.4 µM (inactive) | > 100 µM (inactive) | > 100 µM (inactive) | 48 µM (inactive) | > 100 µM (inactive) | > 100 µM (inactive) | > 100 µM (inactive) | – | > 100 µM (inactive) | > 100 µM (inactive) | – | > 100 µM (inactive) | > 100 µM (inactive) | –
5 | CCCC(=O)NC(Nc1ccc(S(=O)(=O)Nc2cc(C)on2)cc1)(C(=O)OCC)C(F)(F)F (centres undefined) | > 100 µM (inactive) | > 100 µM (inactive) | > 100 | – | > 100 µM (inactive) | – | > 100 µM (inactive) | > 100 µM (inactive) | > 100 µM (inactive) | > 100 µM (inactive) | > 100 µM (inactive) | > 100 µM (inactive) | > 100 µM (inactive) | > 100 µM (inactive) | > 100 µM (inactive) | > 100 µM (inactive) | > 100 µM (inactive) | > 100 µM (inactive) | > 100 µM (inactive)
6 | NC(Cc1ccc(S(=O)(=O)O)cc1)C(=O)NC(Cc1ccc(S(=O)(=O)O)cc1)C(=O)NC(Cc1ccc(S(=O)(=O)O)cc1)C(=O)NC(Cc1ccc(S(=O)(=O)O)cc1)C(=O)O (centres undefined) | 46.1 µM (inactive) | > 100 µM (inactive) | > 100 | > 100 µM (inactive) | – | > 100 µM (inactive) | > 100 µM (inactive) | > 100 µM (inactive) | > 100 µM (inactive) | > 100 µM (inactive) | > 100 µM (inactive) | > 100 µM (inactive) | > 100 µM (inactive) | > 100 µM (inactive) | > 100 µM (inactive) | > 100 µM (inactive) | > 100 µM (inactive) | > 100 µM (inactive) | > 100 µM (inactive)
7 | CC1=NCC[N+]1(CCc1ccccc1)Cc1ccccc1 (centres undefined) | 47.9 µM (inactive) | 64.6 µM (inactive) | > 100 | 34.8 µM (inactive) | 4.78 µM (inactive) | 60.3 µM (inactive) | 19.3 µM (inactive) | 45.5 µM (inactive) | > 100 µM (inactive) | > 100 µM (inactive) | > 100 µM (inactive) | > 100 µM (inactive) | 11.6 µM (inactive) | 13.4 µM (inactive) | > 100 µM (inactive) | 5.71 µM (inactive) | 37.2 µM (inactive) | 49 µM (inactive) | –
8 | O=C1CS(=O)(=O)C(c2cccc(Oc3ccccc3)c2)N1c1cccc(Cl)c1 (centres undefined) | 14.8 µM (inactive) | 36.6 µM (inactive) | 22.1 | 18.1 µM (inactive) | 11.6 µM (inactive) | – | 17.1 µM (inactive) | 31.8 µM (inactive) | 37.1 µM (inactive) | 29.8 µM (inactive) | 23.3 µM (inactive) | 24.8 µM (inactive) | 14.9 µM (inactive) | 37.3 µM (inactive) | 36.3 µM (inactive) | 24.5 µM (inactive) | 26.5 µM (inactive) | 13.8 µM (inactive) | 25.7 µM (inactive)
